Data: ChEMBL document CHEMBL1201862, “PubChem BioAssay data set” (2004)
Calls of active or inactive are those of the source.

Tests used:
[1] = target: T1, Calpain-2 catalytic subunit (Sus scrofa, UniProt P43367); assay: pig calpain II inhibitor potency, dose response, biochemical, fluorogenic peptide substrate (AID 1420); format: functional
T1 sequence (P43367 whole entry): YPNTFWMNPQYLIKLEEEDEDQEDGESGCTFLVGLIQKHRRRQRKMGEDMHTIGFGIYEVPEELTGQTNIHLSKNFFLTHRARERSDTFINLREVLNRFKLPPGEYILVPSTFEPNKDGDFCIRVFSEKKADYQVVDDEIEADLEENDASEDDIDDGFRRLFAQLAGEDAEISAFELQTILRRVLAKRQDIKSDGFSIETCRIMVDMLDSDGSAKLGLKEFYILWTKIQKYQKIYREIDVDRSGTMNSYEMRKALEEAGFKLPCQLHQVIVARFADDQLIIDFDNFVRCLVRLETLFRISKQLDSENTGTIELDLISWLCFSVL

[2] = target: G-protein coupled receptor 55 (Homo sapiens, UniProt Q9Y2T6); assay: GPR55 antagonists blocking LPI-driven arrestin recruitment, primary screen, imaging, U2OS, beta-arrestin-GFP, LPI agonist (AID 2013); format: functional;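 also: antagonist potency measured as reduced agonist-driven arrestin aggregation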
Sequence of G-protein coupled receptor 55 (Q9Y2T6 whole entry): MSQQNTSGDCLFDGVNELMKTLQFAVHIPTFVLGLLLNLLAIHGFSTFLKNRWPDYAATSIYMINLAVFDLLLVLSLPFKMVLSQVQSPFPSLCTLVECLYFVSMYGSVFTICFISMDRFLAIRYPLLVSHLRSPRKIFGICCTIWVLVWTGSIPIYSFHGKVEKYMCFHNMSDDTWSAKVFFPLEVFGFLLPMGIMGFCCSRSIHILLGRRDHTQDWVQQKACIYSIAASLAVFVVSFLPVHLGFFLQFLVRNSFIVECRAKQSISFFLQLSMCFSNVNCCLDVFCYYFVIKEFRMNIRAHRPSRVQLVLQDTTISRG

[3] = growth suppression of beta-catenin-knockout colon cells, dose response, cell-based, HCT116, human colon tumor (AID 1045); format: functional;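 also: HCT116 colon tumor cells with beta catenin knocked out; cells exposed to compound for 60 hours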
[4] = growth suppression of PTEN-null colon cells, dose response, cell-based, HCT116 PTEN knockout (AID 1047); format: functional;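 also: HCT116 colon tumor cells with PTEN knocked out; cells exposed to compound for 60 hours before readout; potency for loss of cell viability measured by luminescence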
[5] = target: DNA dC->dU-editing enzyme APOBEC-3A (Homo sapiens, UniProt P31941); assay: Dose Response confirmation of small molecule APOBEC3A DNA Deaminase Inhibitors via a fluorescence-based single-stranded DNA deaminase assay. [Related pubchem assays (depositor defined):AID493011, AID493024]; format: functional
Sequence of DNA dC->dU-editing enzyme APOBEC-3A (P31941 whole entry): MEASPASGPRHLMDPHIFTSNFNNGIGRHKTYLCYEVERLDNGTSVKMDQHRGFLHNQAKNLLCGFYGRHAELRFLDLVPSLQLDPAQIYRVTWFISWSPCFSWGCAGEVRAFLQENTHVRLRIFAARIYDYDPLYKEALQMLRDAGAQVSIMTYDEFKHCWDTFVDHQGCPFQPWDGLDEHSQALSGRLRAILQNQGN

[6] = target: DNA dC->dU-editing enzyme APOBEC-3G (Homo sapiens, UniProt Q9HC16); format: functional;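 also: Dose-response counterscreen measuring inhibition of APOBEC3G DNA deaminase activity, run while confirming APOBEC3A inhibitors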
Sequence of DNA dC->dU-editing enzyme APOBEC-3G (Q9HC16 whole entry): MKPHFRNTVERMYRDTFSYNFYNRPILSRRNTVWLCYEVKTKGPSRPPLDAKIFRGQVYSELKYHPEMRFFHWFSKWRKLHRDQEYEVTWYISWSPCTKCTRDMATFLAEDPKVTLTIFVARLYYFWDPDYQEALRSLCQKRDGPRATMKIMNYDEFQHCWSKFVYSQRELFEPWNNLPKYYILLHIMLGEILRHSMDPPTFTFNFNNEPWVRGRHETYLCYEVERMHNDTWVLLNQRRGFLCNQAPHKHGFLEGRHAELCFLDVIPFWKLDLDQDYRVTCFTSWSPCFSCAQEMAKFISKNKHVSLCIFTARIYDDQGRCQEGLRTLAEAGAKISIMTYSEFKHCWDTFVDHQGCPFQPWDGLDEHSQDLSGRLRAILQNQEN

[7] = target: T2, Heat shock factor protein 1 (Mus musculus, UniProt P38532); assay: HSF1 potentiators in luciferase reporter cells, confirmation, cell-based, NIH3T3, luminescence, dose retest (AID 435004); format: functional;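 also: stress induced by proteasome inhibitor MG132 added 30 min after compound; luciferase reporter driven by HSF1 response element in NIH3T3 cells; actives raise luminescence as potentiators of the MG132 stress response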
T2 sequence (P38532 whole entry): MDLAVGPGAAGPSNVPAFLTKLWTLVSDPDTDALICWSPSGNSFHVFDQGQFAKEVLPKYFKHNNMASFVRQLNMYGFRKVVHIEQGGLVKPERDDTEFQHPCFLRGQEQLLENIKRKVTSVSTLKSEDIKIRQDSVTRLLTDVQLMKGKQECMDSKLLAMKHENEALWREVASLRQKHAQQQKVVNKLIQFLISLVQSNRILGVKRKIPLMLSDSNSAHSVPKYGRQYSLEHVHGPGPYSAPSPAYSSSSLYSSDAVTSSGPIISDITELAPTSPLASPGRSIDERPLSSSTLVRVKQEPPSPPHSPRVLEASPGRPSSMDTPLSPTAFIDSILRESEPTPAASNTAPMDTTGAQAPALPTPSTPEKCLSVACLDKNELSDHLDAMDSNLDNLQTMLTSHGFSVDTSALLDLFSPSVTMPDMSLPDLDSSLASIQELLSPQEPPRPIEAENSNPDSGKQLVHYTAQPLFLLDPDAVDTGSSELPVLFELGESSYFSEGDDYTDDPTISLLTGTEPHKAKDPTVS

[8] = A cytotoxicity screen of small molecule inhibitors of the PhoP region in Salmonella typhi identified in the primary screen. [Related pubchem assays: 1850, 1864, 1985 ]; format: functional
Prothrombin = Prothrombin (Homo sapiens, UniProt P00734); assay: Thrombin 1536 HTS Dose Response Confirmation. [Related pubchem assays: 1046 (Thrombin 1536 HTS; hits were confirmed in this assay)]; format: functional
[9] = target: T3, Tyrosine-protein phosphatase non-receptor type 7 (Homo sapiens, UniProt P35236); assay: inhibitors of human HePTP phosphatase, […], biochemical, absorbance, leukemia target (AID 521); format: functional
T3 sequence (P35236 whole entry): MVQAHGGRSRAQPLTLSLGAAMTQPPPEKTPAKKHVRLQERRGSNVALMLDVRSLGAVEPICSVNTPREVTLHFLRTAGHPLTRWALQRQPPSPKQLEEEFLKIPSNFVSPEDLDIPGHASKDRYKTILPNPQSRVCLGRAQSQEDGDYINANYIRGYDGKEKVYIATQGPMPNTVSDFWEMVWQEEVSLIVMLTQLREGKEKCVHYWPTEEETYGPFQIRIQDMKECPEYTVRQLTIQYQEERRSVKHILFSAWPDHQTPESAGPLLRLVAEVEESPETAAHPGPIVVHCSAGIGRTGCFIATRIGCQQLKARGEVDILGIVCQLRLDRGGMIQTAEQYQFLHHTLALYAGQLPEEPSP

[10] = inhibitors of intracellular T. cruzi replication, confirmation, NIH3T3 host cells, beta-gal luminescence (AID 2044); format: functional, cell-based;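 also: intracellular parasites grown in NIH/3T3 mouse fibroblasts as host cells; luminescent beta-galactosidase reporter signal from transgenic T. cruzi replicating inside host cells; inhibitors lower the luminescence signal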
[11] = cytotoxicity toward NIH3T3 fibroblasts, dose response, counter-screen, cell-based, ATP luminescence, mouse fibroblasts (AID 2010); format: functional;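 also: cells exposed to compound for about 90 hours before reading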
[12] = HEp-2 cell cytotoxicity, dose response, cytotoxicity control for RSV inhibitor project, HTS (AID 2410); format: functional; settings: human respiratory syncytial virus

## S=c1[nH]nc(CSCc2ccccc2Cl)n1C1CCCCC1
[1]
  IC50: 11.1 µM (not active)
[2]
  IC50: 3.7 µM (active)

## COCCN(CCOC)S(=O)(=O)c1ccc(C(=O)Nc2nc3c(s2)CCc2ccccc2-3)cc1
[3]
  EC50: 13.1 µM (active)
[4]
  EC50: 8.49 µM (active)

## CC(C)[N+](C)(C)CC(O)CN(c1ccccc1)c1ccccc1 (centres undefined)
[5]
  IC50: 3.2 µM (active)
[6]
  IC50: 2.65 µM (active)

## O=C(CC1(O)C(=O)Nc2ccc(Br)cc21)c1ccc2c(c1)OCO2 (centres undefined)
[7]
  EC50: > 260 µM (inactive)
[8]
  EC50: > 50 µM (active)
Prothrombin
  IC50: 2.3 µM (active)

## c1ccc(-c2nn[nH]c2-c2ccccc2)cc1
[9]
  IC50: > 100 µM (not active)

## C1=C(CCNCc2ccccc2)CCCC1
[8]
  EC50: > 50 µM (active)

## C=CCN1C(=O)C(C(C)CC)NC1=S (centres undefined)
Prothrombin
  IC50: > 50 µM (not active)

## CCN1C(NCCc2c[nH]c3ccccc23)=N[C@@H](c2ccccc2)[C@H](C(=O)OC)[C@H]1C
[5]
  IC50: 6.29 µM (active)
[6]
  IC50: 8.65 µM (active)

## COc1cc(CNC2CCCC2)cc(Cl)c1OCc1ccccc1F
[3]
  EC50: 19.1 µM (active)
[10]
  EC50: 2.01 µM (active)
[4]
  EC50: 19.9 µM (active)
[11]
  EC50: > 60 µM (not active)

## Nc1nc2c(s1)CCCCCCCCCC2
[5]
  IC50: 7.08 µM (active)
[6]
  IC50: 4.49 µM (active)

## COc1ccc(-c2nnc(SCC(=O)Nc3sc4c(c3C#N)CCCC4)n2-c2ccccc2)cc1
[3]
  EC50: 5.75 µM (active)
[12]
  CC50: 9.89 µM (active)
[4]
  EC50: 5.14 µM (active)

## C=C(C)CN(CC)C(=O)CC1C(=O)NCCN1CC(C)(C)C (centres undefined)
Prothrombin
  IC50: > 50 µM (not active)
